# Data: ChEMBL document CHEMBL5131375, “Recent Developments in the Use of Kinase Inhibitors for Management of Viral Infections” (J Med Chem, 2022)
# What was measured:
# [1] = Cytotoxicity against human PC-3 cells; assay type: toxicity, cell-based
# [2] = system: Zaire ebolavirus; experiment: microbe, parasite or virus in culture; assay type: functional, organism-based; details: dose 5 µM
# [3] = Cytotoxicity against human MCF7 cells; assay type: toxicity, cell-based
# [4] = Cytotoxicity against 24ST1NLESG cells (unknown origin); assay type: toxicity, cell-based
# [5] = system: Human alphaherpesvirus 1; experiment: Antiviral activity against HSV-1-induced necrosis; assay type: functional, organism-based
# [6] = system: Human alphaherpesvirus 1; experiment: Antiviral activity against HSV-1 KOS strain infected in 1 hr pretreated mouse L929 cells assessed as cell viability by cell titre-glo luminescent kit method; assay type: functional, organism-based; details: Human alphaherpesvirus 1, KOS
# [7] = system: Pichinde virus; experiment: Antiviral activity against PICV infected in african green monkey Vero cells assessed as reduction in viral titre at 100 uM relative to control; assay type: functional; set-up: scale not given: the % may be the effect or the level left
# [8] = system: Pichinde virus; experiment: Antiviral activity against PICV assessed as reduction of viral growth at 50 uM; assay type: functional; set-up: scale not given: the % may be the effect or the level left
# [9] = system: Human alphaherpesvirus 1; experiment: Antiviral activity against HSV-1 assessed as reduction of viral growth at 50 uM; assay type: functional; set-up: scale not given: the % may be the effect or the level left
# [10] = system: Hepatitis B virus; experiment: microbe, parasite or virus in culture; assay type: functional, organism-based; details: Hepatitis B virus
# [11] = system: Human immunodeficiency virus 1; experiment: Antiviral activity against HIV-1 assessed as reduction of viral growth at 50 uM; assay type: functional; set-up: scale not given: the % may be the effect or the level left
# [12] = in vitro; details: chlorocebus sabaeus, Vero cells
# [13] = system: Human alphaherpesvirus 1; experiment: Antiviral activity against HSV-1 infected in african green monkey Vero cells assessed as inhibition of cytopathic effect at 50 uM; assay type: functional; set-up: scale not given: the % may be the effect or the level left
# [14] = in vitro; details: human, Huh-7 cells
# [15] = in vitro; details: human
# [16] = system: Middle East respiratory syndrome-related coronavirus; experiment: microbe, parasite or virus in culture; assay type: functional
# [17] = Cytotoxicity against human HaCaT cells; assay type: toxicity, cell-based
# [18] = molecular target: Serine/threonine-protein kinase mTOR (Homo sapiens, UniProt P42345)
# [19] = Cytotoxicity against MDCK-II cells; assay type: toxicity, cell-based, Canis lupus familiaris; details: dog
# [20] = Cytotoxicity against human A549 cells; assay type: toxicity, cell-based
# [21] = system: Influenza A virus; experiment: Antiviral activity against influenza A RB1/H1N1pdm09 virus; assay type: functional, organism-based
# [22] = system: Influenza A virus; experiment: microbe, parasite or virus in culture; assay type: functional, organism-based; details: H1N1
# [23] = Cytotoxicity against human NCI-H1666 cells; assay type: toxicity, cell-based
# [24] = system: Influenza A virus; experiment: Antiviral activity against influenza pH1N1 virus; assay type: functional, organism-based
# [25] = system: Enterovirus A71; experiment: Antiviral activity against enterovirus A71 infected in human HeLa cells assessed as decrease in viral titer by inhibition of Pim1; assay type: functional; set-up: scale not given: the % may be the effect or the level left
# [26] = system: Enterovirus A71; experiment: Antiviral activity against enterovirus A71 infected in human RD cells assessed as decrease in viral mRNA level at 2 uM; assay type: functional; set-up: scale not given: the % may be the effect or the level left
# [27] = system: Enterovirus A71; experiment: Antiviral activity against enterovirus A71 infected in human RD cells assessed as decrease in viral titer by inhibition of Pim1; assay type: functional; set-up: scale not given: the % may be the effect or the level left
# [28] = in vitro; details: human, hek-293t
# [29] = system: Enterovirus A71; experiment: Antiviral activity against enterovirus A71 assessed as reduction in viral mRNA level at 2 uM relative to control; assay type: functional; set-up: scale not given: the % may be the effect or the level left
# [30] = system: Enterovirus A71; experiment: Antiviral activity against enterovirus A71 infected in human HeLa cells assessed as decrease in viral mRNA level at 2 uM; assay type: functional; set-up: scale not given: the % may be the effect or the level left
# [31] = system: Marburgvirus; experiment: microbe, parasite or virus in culture; assay type: functional, organism-based; details: Orthomarburgvirus
# [32] = in vitro; details: chlorocebus sabaeus, Vero E6 cells
# [33] = system: SARS-CoV-2; experiment: Antiviral activity against SARS-Cov-2 infected in 1 hr pretreated African green monkey Vero E6 cells assessed as inhibition of viral replication; assay type: functional, organism-based; details: Severe acute respiratory syndrome coronavirus 2, Vero C1008
# [34] = system: SARS-CoV-2; experiment: microbe, parasite or virus in culture; assay type: functional, organism-based; details: Severe acute respiratory syndrome coronavirus 2
# [35] = system: SARS-CoV-2; experiment: Antiviral activity against SARS-CoV-2 assessed as inhibition of viral replication; assay type: functional, organism-based; details: Severe acute respiratory syndrome coronavirus 2
# [36] = system: Marburgvirus; experiment: microbe, parasite or virus in culture; assay type: functional, organism-based; details: Orthomarburgvirus, MDM
# [37] = system: Ebolavirus; experiment: microbe, parasite or virus in culture; assay type: functional, organism-based; details: Orthoebolavirus
# [38] = system: Ebolavirus; experiment: microbe, parasite or virus in culture; assay type: functional, organism-based; details: Orthoebolavirus, MDM
# [39] = in vitro; details: human, jurkat 6c6-du cell
# [40] = system: Human immunodeficiency virus; experiment: microbe, parasite or virus in culture; assay type: functional, organism-based; details: Human immunodeficiency virus 1
# [41] = Cytotoxicity against human MCL cells; assay type: toxicity, cell-based
# [42] = Toxicity in mouse infected with Influenza A virus assessed as lethality at 75 mg/kg, po; assay type: organism-based; details: in vivo
# [43] = system: Influenza A virus; experiment: microbe, parasite or virus in culture; assay type: functional, organism-based
# [44] = in vitro; details: human, bxpc-3
# [45] = system: Influenza A virus; experiment: microbe, parasite or virus in culture; assay type: functional, organism-based; remark: listed apart in the source
compound,measurement,setting,value
Ic1cccc(/C=N/Nc2nc(N3CCOCC3)nc(N(c3ccccc3)c3ccccc3)n2)c1,CC50,[1],> 10 µM
same,inhibition at 5 µM,[2],100%
same,CC50,[3],> 10 µM
O=C1NCCc2[nH]c(-c3ccncc3)cc21,CC50,[4],1 µM
same,IC50,[5],1.86 µM
same,IC50,[6],1.86 µM
O=c1c(-c2ccc(O)cc2)coc2cc(O)cc(O)c12 [GENISTEIN],Activity,[7],90%
same,Activity,[8],>50%
same,Activity,[9],>50%
same,EC50,[10],33 µM
same,Activity,[11],>50%
same,CC50,[12],> 50 µM
same,Activity,[13],11%
CO[C@H]1C[C@@H]2CC[C@@H](C)[C@@](O)(O2)C(=O)C(=O)N2CCCC[C@H]2C(=O)O[C@H]([C@H](C)C[C@@H]2CC[C@@H](OCCO)[C@H](OC)C2)CC(=O)[C@H](C)/C=C(\C)[C@@H](O)[C@@H](OC)C(=O)[C@H](C)C[C@H](C)/C=C/C=C/C=C/1C [EVEROLIMUS],CC50,[14],> 10 µM
same,CC50,[15]; HeLa cells,28.3 µM
same,inhibition at 10 µM,[16],56%
same,CC50,[17],28.3 µM
same,IC50,[18],0.0016 µM
CC(=O)Nc1cccc(-n2c(=O)n(C3CC3)c(=O)c3c(Nc4ccc(I)cc4F)n(C)c(=O)c(C)c32)c1 [TRAMETINIB],CC50,[19],> 20 µM
same,CC50,[20],> 20 µM
same,EC50,[21],0.016 µM
NC1(c2ccc(-c3nc4ccn5c(=O)[nH]nc5c4cc3-c3ccccc3)cc2)CCC1 [MK-2206],IC50,[22],0.79 µM
same,CC50,[23],58.5 µM
same,EC50,[24],0.79 µM
CN1CCCN(C(=O)c2cccc(-c3ccc(/C=C4/C(=O)Nc5ccc(Cl)cc54)o3)c2)CC1,Activity,[25],50%
same,Activity,[26],70%
same,Activity,[27],50%
same,CC50,[15]; hela,> 8 µM
same,CC50,[28],> 8 µM
same,Activity,[29],70%
same,Activity,[30],70%
Cc1cccc(/C=N/Nc2cc(N3CCOCC3)nc(OCCc3ccccn3)n2)c1 [APILIMOD],EC50,[31],0.01 µM
same,CC50,[32],> 1 µM
same,EC50,[33],0.023 µM
same,EC50,[34],0.023 µM
same,EC50,[35],0.023 µM
same,IC50,[36],0.01 µM
same,EC50,[37],0.01 µM
same,IC50,[38],0.01 µM
O=C(Nc1nc2cccc(-c3ccc(CN4CCS(=O)(=O)CC4)cc3)n2n1)C1CC1 [FILGOTINIB],CC50,[39],> 10 µM
same,EC50,[40],3.1 µM
C=CC(=O)N1CCC([C@@H]2CCNc3c(C(N)=O)c(-c4ccc(Oc5ccccc5)cc4)nn32)CC1 [ZANUBRUTINIB],CC50,[41],> 1.4 µM
O=C(NCc1ccncc1)C12CC3CC(C1)CC(c1ccc(Cl)cc1)(C3)C2 [ABC-294640],Activity,[42],Non-Toxic
same,EC50,[43],1.78 µM
same,CC50,[44],28.5 µM
same,EC50,[45],1.78 µM
